One test has as its system collagen genes. The test is described as follows: Expression of collagen genes in normal human fibroblasts (quantitative real-time PCR, standardized to GAPDH). The test is classed as cell-based. The note with it: NB1RGB cells, 24 hours. The method, then:
(§1) The gene expression of collagen and elastin in normal human fibroblasts was examined. Further, it has been known that a decrease in expression level of collagen and elastin due to cellular aging causes wrinkles.
(§2) NB1RGB cells (purchased from Riken BioResource Center), which are normal human fibroblasts, were seeded in a plastic dish at a seeding density of 10000 cells/cm^2 and cultured in Dulbecco's Modified Eagle's medium (DMEM) (manufactured by Sigma-Aldrich Corporation) containing 10% fetal bovine serum for 24 hours. Thereafter, each inositol derivative of Examples 1 to 6 and Comparative Example 1 in a state of being dissolved in purified water was added to the medium at a final concentration of 0.01 w/v % and further cultured for 24 hours. […]
(§3) Next, total RNA was extracted from cells of each group to synthesize cDNA. Next, the expression levels of collagen genes and elastin genes in NB1RGB cells of each group were quantified by performing quantitative real-time PCR using the cDNA as a template. Further, the expression level of glyceraldehyde-3-phospahte dehydrogenase (GAPDH), which is a housekeeping gene, was quantified as an internal standard gene, and the expression levels of collagen genes and elastin genes were respectively standardized based on the expression level of the GAPDH genes in the NB1RGB cells of each group. […]
(In qPCR the cycle at which signal appears reflects the starting amount.)

Another test relates to elastin genes. As to the kind of experiment: Expression of elastin genes in normal human fibroblasts (quantitative real-time PCR, standardized to GAPDH). The test is classed as cell-based. The note with it: NB1RGB cells, 0.001 w/v % myo-inositol, 24 hours, purified water = 1.00. The method, then:
as §1, §2, §3

On to `O[C@H]1[C@H](O)[C@@H](O)[C@H](O)[C@@H](O)[C@H]1O` [myo-Inositol], for which the “Expression level of genes (relative value) Collagen” value in the test with collagen genes (0.001 w/v % myo-inositol, standardized to GAPDH, purified water = 1.00) was determined as 0.54 relative value. In the test on collagen genes (inositol derivatives 0.01 w/v %, myo-inositol 0.001 w/v %), the “Expression of collagen genes compared to the purified water as a control (in words)” value is listed as “a decrease in expression of collagen genes was shown”. Further, the “Expression level of genes (relative value) Elastin” value in the test with elastin genes was 1.23 relative value.

Source of the values: US10918585B2, “Anti-aging agent and anti-aging composition for skin” (SHOWA DENKO K.K., priority 2015, dated 2021).
